# Measured values reported in patent publication US20090186896A1, “PDE Inhibitors and Combinations Thereof for the Treatment of Urological Disorders” (Bayer HealthCare AG, priority 2005, published 2009).
# Like-named read-outs stand apart in the source and are kept apart here.
# How the values were obtained:
# [1] = system: bladder of female Guinea Pigs; conditions: Gillespie 2004; cited from earlier work
# rabbit bladder strips = experiment: Organ bath, isolated rabbit bladder strips pre-contracted with K+ (50 mmol/l); assay type: cell-based; conditions: for % contraction of isolated rabbit bladder strips: percentage of the pre-contraction, mean ± SEM, n = 9; for IC50: Oryctolagus cuniculus, rabbit bladder strips
# Method: White New Zealand rabbits were anesthetized using thiopental. The urinary bladder was removed and placed in ice-cold Krebs-Henseleit buffer of following composition (in mmol/l): NaCl 112, KCl 5.9, CaCl2 2.0 MgCl2 1.2, NaH2PO4 1.2, NaHCO3 25, and glucose 11.5. Equally sized longitudinal strips of approximately 2 mm×10 mm were cut from the bladder body.
# Recording of mechanical activity: The preparations were transferred to 20 ml organ baths containing Krebs-Henseleit solution equilibrated with 95% O2, 5% CO2 at 37° C. The strips were mounted between two hooks by means of two clips. For recording of isometric tension one of the hooks was connected to a force transducer which was in turn linked to an amplifier and chart recorder. The other hook was attached to a movable unit, permitting precise adjustment of preload tension. All tissues were then given a 60 min equilibration period during which they were washed and the resting tension was adjusted to 1 g every 20 min.
# After the equilibration period, each experiment was started by exposing the preparation to K^+ (50 mmol/l) Krebs-Henseleit solution. The procedure was repeated 3 times and the tissues were washed at least tree times between each contraction.
# The bladder strips were than pre-contracted using K^+ (50 mmol/l) Krebs-Henseleit solution. When the contraction was stabilized, an accumulative dose response curve of the compound tested was constructed. The stabilized contraction induced by K^+ (50 mmol/l) Krebs-Henseleit solution was defined as 100% tension. The relaxation was expressed as percentage tension.
# Effects of PDE5 and PDE4 inhibitors on isolated rabbit bladder strips: The effects of the PDE5 inhibitor vardenafil and the PDE4 inhibitor Roflumilast on the relaxation the bladder smooth muscle was tested in the organ bath using rabbit bladder strips. Both compounds were tested in the concentration from 10^−9 mol/l to 10^−5 mol/l (FIG. 4, Tab. 2). […] (Table 2)
# human prostate tissue = conditions: in vitro; Ückert 2001; cited from earlier work
# rat prostate strips = experiment: Organ bath, isolated rat prostate strips pre-contracted with phenylephrine; assay type: cell-based; conditions: for Prostate (% contraction): percentage of the pre-contraction, mean ± SEM, n = 9
# From the text: (§1) Tissue preparation: Male Wistar rats (200-300 g) were euthanized using carbon dioxide. The tissues were removed and placed in ice-cold Krebs-Henseleit buffer of following composition (in mmol/l): NaCl 112, KCl 5.9, CaCl2 2.0 MgCl2 1.2, NaH2PO4 1.2, NaHCO3 25, glucose 11.5. Four equally sized longitudinal strips of approximately 2 mm×10 mm were cut from the bladder body. Prostate strips were obtained by cutting transversally through the lobes of the prostate gland parallel to the urethra. One ring per animal was dissected from the proximal part of the urethra. Recording of mechanical activity: The preparations were transferred to 20 ml organ baths containing Krebs-Henseleit solution equilibrated with 95% O2, 5% CO2 at 37° C. The strips were mounted between two hooks by means of two clips. For recording of isometric tension one of the hooks was connected to a force transducer which was in turn linked to an amplifier and chart recorder. The other hook was attached to a movable unit, permitting precise adjustment of preload tension. All tissues were then given a 60 min equilibration period during which they were washed and the resting tension was adjusted to 1 g every 20 min. After the equilibration period, each experiment was started by exposing the preparation to K^+ (50 mmol/l) Krebs-Henseleit solution. The procedure was repeated 3 times and the tissues were washed at least tree times between each contraction. Prostatic strips and urethral rings were pre-contracted using 10^−6 mol/l phenylephrine. The effects of the compounds on the prostate tissue were tested in a non-cumulative manner with washing steps between each concentration. Organ bath assay: effects of Vardenafil on isolated rat urogenital organs: The effects of the PDE5 inhibitor Vardenafil on the relaxation of smooth muscles were tested in the organ bath system. The compound was applied in the concentration range from 10^−8 mol/l to 10^−5 mol/l (FIG. 3, Table 1).
# BOO rats = experiment: Conscious cystometry in rat bladder outlet obstruction (BOO) model, non voiding contractions; assay type: in vivo; conditions: i.v.
# Method: All animal experiments were performed due to the “German Law for the Protection of Laboratory animals” and were conducted due to the approved guidelines of the permission “Tierversuchsvorhaben No 401/A01 M010/M011 vom Sep. 7, 2004”. Experiments were performed with female Sprague Dawley Rats with a body weight between 200-250 g.
# Bladder Outlet Obstruction: For the bladder outlet obstruction, rats were anesthetized with a mixture of 1.5-2% isoflurane in a carrier of 66% N2O 33% O2. The abdomen was shaved, opened by a lower midline incision, bladder and urethra were identified and the urethravesical junction was exposed. A 1.0 mm metal rod was placed along the proximal urethra and a 6-0 nylon ligature was tied tightly around the urethra and the rod. The rod was consecutively removed and the abdomen was closed by a silk ligature and cleaned up by 70% ethanol. […]
# Conscious cystometry: For cystometry the animals were shortly anaesthetized by isoflurane as described above, placed in a Ballman's cage and fixed. […] The efficacy of treatment was quantified via calculation of the non voiding contractions per micturition interval before and after treatment. […]
# Statistical analysis of results: Data are expressed as means±standard error of the means (SEM), and n indicating the number of experiments. The significance of differences between means was determined by paired and unpaired Student's t-test. […]
# CYP-treated rats = experiment: Anaesthetized cystometry, micturition interval in CYP-treated rats (overactive bladder); assay type: in vivo, rat; conditions: i.v.
# Method: All animal experiments were performed due to the “German Law for the Protection of Laboratory animals” and were conducted due to the approved guidelines of the permission “Tierversuchsvorhaben No 401/A01 M010/M011 vom Sep. 7, 2004”. Experiments were performed with female Sprague Dawley Rats with a body weight between 200-250 g. Anaesthetized cystometry: For cystometry female SD rats were anaesthetized with urethane (1.2 g/kg, ip). After laparotomy, the bladder was exposed and both ureters were ligated and cut. A polyethylene cannula (PE50) was implanted into the bladder dome, and the abdomen was closed. The bladder catheter was connected to the t-shaped tube to connect a infusion pump (Perfusor® compact; Braun Melsungen) for continuous infusion of saline solution and to connect a pressure transducer (Combitrans; Braun Melsungen) for measurement of intrabladder pressure. The intrabladder pressure signals were registered with the Powerlab System (MLT0698, ADInstrument). […] The effect of treatments was calculated on the micturition interval (corresponding to bladder capacity). […]
# Statistical analysis of results: Data are expressed as means i standard error of the means (SEM), and n indicating the number of experiments. The significance of differences between means was determined by paired and unpaired Student's t-test. […]
# rat urethral rings = experiment: Organ bath, isolated rat urethral rings pre-contracted with phenylephrine; assay type: cell-based; conditions: for Urethra (% contraction): percentage of the pre-contraction, mean ± SEM, n = 9
# From the text: as §1
# rat bladder strips = experiment: Organ bath, isolated rat bladder strips pre-contracted with K+ (50 mmol/l); assay type: cell-based; conditions: for Bladder (% contraction): percentage of the pre-contraction, mean ± SEM, n = 9
# From the text: Tissue preparation: Male Wistar rats (200-300 g) were euthanized using carbon dioxide. The tissues were removed and placed in ice-cold Krebs-Henseleit buffer of following composition (in mmol/l): NaCl 112, KCl 5.9, CaCl2 2.0 MgCl2 1.2, NaH2PO4 1.2, NaHCO3 25, glucose 11.5. Four equally sized longitudinal strips of approximately 2 mm×10 mm were cut from the bladder body. Prostate strips were obtained by cutting transversally through the lobes of the prostate gland parallel to the urethra. One ring per animal was dissected from the proximal part of the urethra. Recording of mechanical activity: The preparations were transferred to 20 ml organ baths containing Krebs-Henseleit solution equilibrated with 95% O2, 5% CO2 at 37° C. The strips were mounted between two hooks by means of two clips. For recording of isometric tension one of the hooks was connected to a force transducer which was in turn linked to an amplifier and chart recorder. The other hook was attached to a movable unit, permitting precise adjustment of preload tension. All tissues were then given a 60 min equilibration period during which they were washed and the resting tension was adjusted to 1 g every 20 min. After the equilibration period, each experiment was started by exposing the preparation to K^+ (50 mmol/l) Krebs-Henseleit solution. The procedure was repeated 3 times and the tissues were washed at least tree times between each contraction. The bladder strips were than pre-contracted using K^+ (50 mmol/l) Krebs-Henseleit solution. When the contraction was stabilized, an accumulative dose response curve of the compound tested was constructed. The stabilized contraction induced by K^+ (50 mmol/l) Krebs-Henseleit solution was defined as 100% tension. The relaxation was expressed as percentage tension. Organ bath assay: effects of Vardenafil on isolated rat urogenital organs: The effects of the PDE5 inhibitor Vardenafil on the relaxation of smooth muscles were tested in the organ bath system. The compound was applied in the concentration range from 10^−8 mol/l to 10^−5 mol/l (FIG. 3, Table 1).
# [2] = read-out: IC50, relaxation of bladder strips
compound,measurement,setting,value
CC(C)Cn1c(=O)n(C)c(=O)c2[nH]cnc21 [IBMX],relaxation of bladder,[1],could relax
O=C(Nc1c(Cl)cncc1Cl)c1ccc(OC(F)F)c(OCC2CC2)c1 [Roflumilast],% contraction of isolated rabbit bladder strips,rabbit bladder strips; 0.001 μmol/l,100.8 ± 0.6%
same,% contraction of isolated rabbit bladder strips,rabbit bladder strips; 0.01 μmol/l,90.1 ± 1.7%
same,% contraction of isolated rabbit bladder strips,rabbit bladder strips; 0.1 μmol/l,75.1 ± 2.1%
same,% contraction of isolated rabbit bladder strips,rabbit bladder strips; 1 μmol/l,55.8 ± 2.5%
same,% contraction of isolated rabbit bladder strips,rabbit bladder strips; 10 μmol/l,40.9 ± 3.3%
same,IC50,rabbit bladder strips; [2],0.26 µM
same,IC50,"rabbit bladder strips; read-out: IC50, relaxing effects on rabbit bladder strips",0.26 µM
CCCOc1ccccc1-c1nc2nn[nH]c2c(=O)[nH]1 [Zaprinast],relaxation of pre-contracted human prostate tissue,human prostate tissue,able to relax
same,relaxation of bladder,[1],ineffective
"CCCc1nc(C)c2c(=O)[nH]c(-c3cc(S(=O)(=O)N4CCN(CC)CC4)ccc3OCC)nn12 [Vardenafil, 2-(2-Ethoxy-5-(4-ethylpiperazin-1-yl-1-sulfonyl)phenyl)-5-methyl-7-propyl-3H-imidazo (5,1-f) (1,2,4)triazin-4-one]",Prostate (% contraction),rat prostate strips; 0.1 μmol/l,99.2 ± 3.0%
same,Prostate (% contraction),rat prostate strips; 1 μmol/l,76.0 ± 2.3%
same,Prostate (% contraction),rat prostate strips; 10 μmol/l,25.3 ± 3.2%
same,EC50,"rat prostate strips; rat prostate strips, read-out: EC50, relaxation of prostate strips",1.1 µM
same,"MED, significant reduction of non voiding contractions (NVC)",BOO rats,3 mg/kg
same,"MED, significant increase of micturition interval",CYP-treated rats,3 mg/kg
same,% contraction of isolated rabbit bladder strips,rabbit bladder strips; 0.001 μmol/l,100.9 ± 1.0%
same,% contraction of isolated rabbit bladder strips,rabbit bladder strips; 0.01 μmol/l,99.9 ± 0.9%
same,% contraction of isolated rabbit bladder strips,rabbit bladder strips; 0.1 μmol/l,95.7 ± 1.7%
same,% contraction of isolated rabbit bladder strips,rabbit bladder strips; 1 μmol/l,76.3 ± 3.7%
same,% contraction of isolated rabbit bladder strips,rabbit bladder strips; 10 μmol/l,9.6 ± 12.6%
same,IC50,rabbit bladder strips; [2],1.7 µM
same,Urethra (% contraction),rat urethral rings; 0.001 μmol/l,88.4 ± 2.4%
same,Urethra (% contraction),rat urethral rings; 0.01 μmol/l,88.5 ± 2.1%
same,Urethra (% contraction),rat urethral rings; 0.1 μmol/l,77.1 ± 3.9%
same,Urethra (% contraction),rat urethral rings; 1 μmol/l,44.9 ± 1.5%
same,Urethra (% contraction),rat urethral rings; 10 μmol/l,3.5 ± 1.7%
same,EC50,"rat urethral rings; rat urethral rings, read-out: EC50, relaxation of urethral rings",0.96 µM
same,Bladder (% contraction),rat bladder strips; 0.001 μmol/l,94.3 ± 0.9%
same,Bladder (% contraction),rat bladder strips; 0.01 μmol/l,91.2 ± 1.3%
same,Bladder (% contraction),rat bladder strips; 0.1 μmol/l,89.9 ± 1.8%
same,Bladder (% contraction),rat bladder strips; 1 μmol/l,77.8 ± 2.1%
same,Bladder (% contraction),rat bladder strips; 10 μmol/l,25.3 ± 3.2%
same,EC50,"rat bladder strips; rat bladder strips, read-out: EC50, relaxation of bladder strips",5 µM
